Measurements from ChEMBL document CHEMBL1135808, “A new type of mixed anhydride and its applications to the synthesis of 7-substituted 8-chloro-5,5-dioxoimidazo[1,2-b][1,4,2]benzodithiazines with in vitro antitumor activity” (2002).

These compounds were tested on U-251 (assay: Log of molar concentration leading to 50% cell death against CNS cancer U251 cell line was reported). Settings: Homo sapiens, read-out: Log LC50 (the source's name) (converted).
Format: functional
In the case of `Cc1ccc2cccc(NC(=O)c3cc4c(cc3Cl)Sc3nccn3S4(=O)=O)c2n1`, the CC50 is reported as 38 µM.

Each compound was assayed on COLO 205 (assay: In vitro total growth inhibition against colon cancer COLO 205 cell lines was reported.). Settings: Homo sapiens, read-out: Log TGI (converted).
Format: functional
Compound `Cc1ccc2cccc(NC(=O)c3cc4c(cc3Cl)Sc3nccn3S4(=O)=O)c2n1` has a TGI of 30.9 µM.

The compounds below were run on HT-29 (assay: In vitro growth inhibition against colon cancer HT-29 cell line was reported.). Settings: Homo sapiens.
Format: functional
For `Cc1ccc2cccc(NC(=O)c3cc4c(cc3Cl)Sc3nccn3S4(=O)=O)c2n1`, the GI50 was 9.55 µM.

The compounds below were run on SNB-19 (assay: In vitro total growth inhibition against CNS cancer SNB-19 cell lines was reported.). Settings: Homo sapiens, read-out: Log TGI (converted).
Format: functional
With `Cc1ccc2cccc(NC(=O)c3cc4c(cc3Cl)Sc3nccn3S4(=O)=O)c2n1` the TGI was 33.9 µM.

The compounds below were run on K562 (assay: In vitro growth inhibition against leukemia K-562 cell line was reported.). Settings: Homo sapiens.
Format: functional
`Cc1ccc2cccc(NC(=O)c3cc4c(cc3Cl)Sc3nccn3S4(=O)=O)c2n1` showed a GI50 of 4.07 µM.

The compounds below were run on RPMI-8226 (assay: In vitro total growth inhibition against leukemia […] cell lines was reported.). Settings: Homo sapiens, read-out: Log TGI (converted).
Format: functional
For `Cc1ccc2cccc(NC(=O)c3cc4c(cc3Cl)Sc3nccn3S4(=O)=O)c2n1`, the TGI was 3.8 µM.

These compounds were tested on MDA-MB-231 (assay: Log of molar concentration leading to 50% cell death against breast cancer MDA-MB-231/ATCC cell line was reported). Settings: Homo sapiens, read-out: Log LC50 (the source's name) (converted).
Format: functional
For `Cc1ccc2cccc(NC(=O)c3cc4c(cc3Cl)Sc3nccn3S4(=O)=O)c2n1`, the CC50 was 49 µM.

Each compound was assayed on NCI-H322M (assay: In vitro growth inhibition against non-small-cell lung cancer […] cell line was reported.). Settings: Homo sapiens.
Format: functional
`Cc1ccc2cccc(NC(=O)c3cc4c(cc3Cl)Sc3nccn3S4(=O)=O)c2n1` was tested, and the GI50 was 12 µM.

What follows are compounds tested on SK-MEL-28 (assay: In vitro total growth inhibition against melanoma SK-MEL-28 cell lines was reported.). Settings: Homo sapiens, read-out: Log TGI (converted).
Format: functional
`Cc1ccc2cccc(NC(=O)c3cc4c(cc3Cl)Sc3nccn3S4(=O)=O)c2n1` was tested, and the TGI was 26.9 µM.

What follows are compounds tested on SF-295 (assay: In vitro total growth inhibition against CNS cancer SF-295 cell lines was reported.). Settings: Homo sapiens, read-out: Log TGI (converted).
Format: functional
`Cc1ccc2cccc(NC(=O)c3cc4c(cc3Cl)Sc3nccn3S4(=O)=O)c2n1` was tested, and the TGI was 24.5 µM.

The compounds below were run on Malme-3M (assay: In vitro growth inhibition against melanoma MALME 3M cell line was reported.). Settings: Homo sapiens.
Format: functional
`Cc1ccc2cccc(NC(=O)c3cc4c(cc3Cl)Sc3nccn3S4(=O)=O)c2n1` was tested, and the GI50 was 17 µM.

Each compound was assayed on Hs-578T (assay: In vitro growth inhibition against breast cancer HS 578T cell line was reported.). Settings: Homo sapiens.
Format: functional
For `Cc1ccc2cccc(NC(=O)c3cc4c(cc3Cl)Sc3nccn3S4(=O)=O)c2n1`, the GI50 was 13.5 µM.

The compounds below were run on KM12 (assay: In vitro total growth inhibition against colon cancer KM12 cell lines was reported.). Settings: Homo sapiens, read-out: Log TGI (converted).
Format: functional
Compound `Cc1ccc2cccc(NC(=O)c3cc4c(cc3Cl)Sc3nccn3S4(=O)=O)c2n1` has a TGI of 19.1 µM.

These compounds were tested on OVCAR-8 (assay: In vitro growth inhibition against ovarian cancer OVCAR-8 cell line was reported.). Settings: Homo sapiens.
Format: functional
Work on `Cc1ccc2cccc(NC(=O)c3cc4c(cc3Cl)Sc3nccn3S4(=O)=O)c2n1` yielded a GI50 of 3.8 µM.

These compounds were tested on IGROV-1 (assay: In vitro total growth inhibition against ovarian cancer IGROV1 cell lines was reported.). Settings: Homo sapiens, read-out: Log TGI (converted).
Format: functional
For `Cc1ccc2cccc(NC(=O)c3cc4c(cc3Cl)Sc3nccn3S4(=O)=O)c2n1`, the TGI was 6.92 µM.

Species: Homo sapiens
Test: In vitro total growth inhibition against non-small-cell lung cancer EKVX cell lines was reported.
Format: functional
Settings: read-out: Log TGI (converted)
`Cc1ccc2cccc(NC(=O)c3cc4c(cc3Cl)Sc3nccn3S4(=O)=O)c2n1` was tested, and the TGI was 25.7 µM.

Each compound was assayed on TK-10 (assay: In vitro growth inhibition against renal cancer TK-10 cell line was reported.). Settings: Homo sapiens.
Format: functional
With `Cc1ccc2cccc(NC(=O)c3cc4c(cc3Cl)Sc3nccn3S4(=O)=O)c2n1` the GI50 was 8.51 µM.

What follows are compounds tested on NCI-H522 (assay: In vitro total growth inhibition against non-small-cell lung cancer NCI-522 cell lines was reported.). Settings: Homo sapiens, read-out: Log TGI (converted).
Format: functional
In the case of `Cc1ccc2cccc(NC(=O)c3cc4c(cc3Cl)Sc3nccn3S4(=O)=O)c2n1`, the TGI is reported as 26.3 µM.

What follows are compounds tested on BT-549 (assay: In vitro total growth inhibition against breast cancer BT 549 cell line was reported.). Settings: Homo sapiens, read-out: Log TGI (converted).
Format: functional
For `Cc1ccc2cccc(NC(=O)c3cc4c(cc3Cl)Sc3nccn3S4(=O)=O)c2n1`, the TGI was 60.3 µM.

What follows are compounds tested on HOP-62 (assay: Log of molar concentration leading to 50% cell death against non-small-cell lung cancer HOP-62 cell line was reported). Settings: Homo sapiens, read-out: Log LC50 (the source's name) (converted).
Format: functional
Compound `Cc1ccc2cccc(NC(=O)c3cc4c(cc3Cl)Sc3nccn3S4(=O)=O)c2n1` has a CC50 of 39.8 µM.

What follows are compounds tested on Tumor Cell line (assay: Log of molar concentration leading to 50% cell death was reported). Settings: Homo sapiens, read-out: Log LC50 (the source's name) (converted).
Format: functional
In the case of `Cc1ccc2cccc(NC(=O)c3cc4c(cc3Cl)Sc3nccn3S4(=O)=O)c2n1`, the CC50 is reported as 91.2 µM.

What follows are compounds tested on CCRF-CEM (assay: In vitro total growth inhibition against leukemia CCRF cell lines was reported.). Settings: Homo sapiens, read-out: Log TGI (converted).
Format: functional
With `Cc1ccc2cccc(NC(=O)c3cc4c(cc3Cl)Sc3nccn3S4(=O)=O)c2n1` the TGI was 17 µM.

Each compound was assayed on OVCAR-3 (assay: In vitro growth inhibition against ovarian cancer OVCAR-3 cell line was reported.). Settings: Homo sapiens.
Format: functional
`Cc1ccc2cccc(NC(=O)c3cc4c(cc3Cl)Sc3nccn3S4(=O)=O)c2n1` gave a GI50 of 2950 nM.

Each compound was assayed on HCT-116 (assay: Log of molar concentration leading to 50% cell death against colon cancer HCT116 cell line was reported). Settings: Homo sapiens, read-out: Log LC50 (the source's name) (converted).
Format: functional
In the case of `Cc1ccc2cccc(NC(=O)c3cc4c(cc3Cl)Sc3nccn3S4(=O)=O)c2n1`, the CC50 is reported as 40.7 µM.

These compounds were tested on HCT-15 (assay: In vitro growth inhibition against colon cancer […] cell line was reported.). Settings: Homo sapiens.
Format: functional
`Cc1ccc2cccc(NC(=O)c3cc4c(cc3Cl)Sc3nccn3S4(=O)=O)c2n1` showed a GI50 of 4.79 µM.

These compounds were tested on HCT-116 (assay: In vitro growth inhibition against colon cancer HCT116 cell line was reported.). Settings: Homo sapiens.
Format: functional
`Cc1ccc2cccc(NC(=O)c3cc4c(cc3Cl)Sc3nccn3S4(=O)=O)c2n1` was tested, and the GI50 was 4.57 µM.

The compounds below were run on 786-0 (assay: In vitro growth inhibition against renal cancer […] cell line was reported.). Settings: Homo sapiens.
Format: functional
With `Cc1ccc2cccc(NC(=O)c3cc4c(cc3Cl)Sc3nccn3S4(=O)=O)c2n1` the GI50 was 16.2 µM.

Each compound was assayed on SW-620 (assay: In vitro total growth inhibition against colon cancer SW-620 cell lines was reported.). Settings: Homo sapiens, read-out: Log TGI (converted).
Format: functional
In the case of `Cc1ccc2cccc(NC(=O)c3cc4c(cc3Cl)Sc3nccn3S4(=O)=O)c2n1`, the TGI is reported as 23.4 µM.

The compounds below were run on HL-60 (assay: In vitro total growth inhibition against leukemia HL-60(TB) cell lines was reported.). Settings: Homo sapiens, read-out: Log TGI (converted).
Format: functional
For `Cc1ccc2cccc(NC(=O)c3cc4c(cc3Cl)Sc3nccn3S4(=O)=O)c2n1`, the TGI was 10 nM.

The compounds below were run on NCI-H23 (assay: In vitro total growth inhibition against non-small-cell lung cancer NCI-H23 cell lines was reported.). Settings: Homo sapiens, read-out: Log TGI (converted).
Format: functional
Compound `Cc1ccc2cccc(NC(=O)c3cc4c(cc3Cl)Sc3nccn3S4(=O)=O)c2n1` has a TGI of 56.2 µM.
